Source: ChEMBL document CHEMBL1671662, “In vitro activities of telavancin and six comparator agents against anaerobic bacterial isolates” (2009)
Values after ≈ are worked out from the molar mass of the structure shown.

Tests used:
Odoribacter splanchnicus = assay: Antibacterial activity against Bacteroides splanchnicus by CLSI M11-A6 agar dilution method; type: functional
Clostridium scindens = assay: Antibacterial activity against Clostridium scindens by CLSI M11-A6 agar dilution method; type: functional
Bifidobacterium longum = assay: Antibacterial activity against Bifidobacterium longum by CLSI M11-A6 agar dilution method; type: functional
Prevotella denticola = assay: Antibacterial activity against Prevotella P denticola by CLSI M11-A6 agar dilution method; type: functional
Thomasclavelia ramosa = assay: Antibacterial activity against Clostridium ramosum by CLSI M11-A6 agar dilution method; type: functional
Clostridium = assay: Antibacterial activity against Clostridium hypermegas by CLSI M11-A6 agar dilution method; type: functional
[1] = test system: Catenibacterium mitsuokai; assay: Antibacterial activity against Catenibacterium mitsuokai by CLSI M11-A6 agar dilution method; type: functional
Clostridium tertium = assay: Antibacterial activity against Clostridium tertium by CLSI M11-A6 agar dilution method; type: functional
[2] = test system: Ruminococcus flavefaciens; assay: Antibacterial activity against Ruminococcus flavefaciens by CLSI M11-A6 agar dilution method; type: functional
Prevotella intermedia [3] = assay: Antibacterial activity against Prevotella P intermedia by CLSI M11-A6 agar dilution method; type: functional
Phocaeicola vulgatus = assay: Antibacterial activity against Bacteroides vulgatus by CLSI M11-A6 agar dilution method; type: functional
Anaerococcus tetradius = assay: Antibacterial activity against Anaerococcus tetradius by CLSI M11-A6 agar dilution method; type: functional
Prevotella buccae = assay: Antibacterial activity against Prevotella buccae by CLSI M11-A6 agar dilution method; type: functional; details: Segatella buccae
Actinomyces naeslundii = assay: Antibacterial activity against Actinomyces naeslundii by CLSI M11-A6 agar dilution method; type: functional
[Clostridium] innocuum = Antibacterial activity against Clostridium innocuum by CLSI M11-A6 agar dilution method; type: functional
Ruminococcus sp. = assay: Antibacterial activity against Ruminococcus sp. by CLSI M11-A6 agar dilution method; type: functional
[4] = test system: Paraclostridium bifermentans; assay: Antibacterial activity against Clostridium bifermentans by CLSI M11-A6 agar dilution method; type: functional
Flavonifractor plautii = assay: Antibacterial activity against Clostridium orbiscindens by CLSI M11-A6 agar dilution method; type: functional
Clostridium disporicum = assay: Antibacterial activity against Clostridium disporicum by CLSI M11-A6 agar dilution method; type: functional
Anaerococcus prevotii = assay: Antibacterial activity against Anaerococcus prevotii by CLSI M11-A6 agar dilution method; type: functional
[5] = test system: Clostridium paraputrificum; assay: Antibacterial activity against Clostridium paraputrificum by CLSI M11-A6 agar dilution method; type: functional
Fusobacterium varium = assay: Antibacterial activity against Fusobacterium varium by CLSI M11-A6 agar dilution method; type: functional
Clostridium spiroforme = assay: Antibacterial activity against Clostridium spiroforme by CLSI M11-A6 agar dilution method; type: functional; details: Thomasclavelia spiroformis
Clostridium glycolicum = assay: Antibacterial activity against Clostridium glycolicum by CLSI M11-A6 agar dilution method; type: functional; details: Terrisporobacter glycolicus
[6] = Antibacterial activity against Bifidobacterium infantis by CLSI M11-A6 agar dilution method; type: functional, Bifidobacterium longum subsp. infantis; details: Bifidobacterium longum
Holdemania filiformis = assay: Antibacterial activity against Holdemania filiformis by CLSI M11-A6 agar dilution method; type: functional
Prevotella disiens = assay: Antibacterial activity against Prevotella P disiens by CLSI M11-A6 agar dilution method; type: functional
Bacteroides fragilis = assay: Antibacterial activity against Bacteroides fragilis by CLSI M11-A6 agar dilution method; type: functional
Bifidobacterium breve = assay: Antibacterial activity against Bifidobacterium breve by CLSI M11-A6 agar dilution method; type: functional
[7] = test system: Bifidobacterium adolescentis; assay: Antibacterial activity against Bifidobacterium adolescentis by CLSI M11-A6 agar dilution method; type: functional
Clostridium butyricum = assay: Antibacterial activity against Clostridium butyricum by CLSI M11-A6 agar dilution method; type: functional
[8] = test system: Streptococcus constellatus; assay: Antibacterial activity against Streptococcus constellatus by CLSI M11-A6 agar dilution method; type: functional
Collinsella aerofaciens = assay: Antibacterial activity against Colinsella aerofaciens by CLSI M11-A6 agar dilution method; type: functional
Fusobacterium mortiferum = assay: Antibacterial activity against Fusobacterium mortiferum by CLSI M11-A6 agar dilution method; type: functional
[9] = test system: Streptococcus intermedius; assay: Antibacterial activity against Streptococcus intermedius by CLSI M11-A6 agar dilution method; type: functional
[10] = test system: Prevotella melaninogenica; assay: Antibacterial activity against Prevotella melaninogenica by CLSI M11-A6 agar dilution method; type: functional
Prevotella intermedia [11] = assay: Antibacterial activity against Prevotella intermedia by CLSI M11-A6 agar dilution method; type: functional
Clostridium bartlettii = assay: Antibacterial activity against Clostridium bartlettii by CLSI M11-A6 agar dilution method; type: functional; details: Intestinibacter bartlettii
Clostridium perfringens = assay: Antibacterial activity against Clostridium perfringens by CLSI M11-A6 agar dilution method; type: functional

Work on `Cc1ncc([N+](=O)[O-])n1CCO` [METRONIDAZOLE] yielded an MIC50 (Odoribacter splanchnicus) of 0.25 µg/mL (≈ 1.46 µM), an MIC90 (Odoribacter splanchnicus) of 1 µg/mL (≈ 5.84 µM) and an MIC50 (Clostridium scindens) of 0.25 µg/mL (≈ 1.46 µM). For the same molecule, the MIC90 (Clostridium scindens) was 1 µg/mL (≈ 5.84 µM), the MIC50 (Bifidobacterium longum) was 1 µg/mL (≈ 5.84 µM) and the MIC90 (Bifidobacterium longum) was 128 µg/mL (≈ 748 µM). The MIC50 (Prevotella denticola) was 0.5 µg/mL (≈ 2.92 µM), the MIC90 (Prevotella denticola) was 1 µg/mL (≈ 5.84 µM) and the MIC50 (Thomasclavelia ramosa) was 0.5 µg/mL (≈ 2.92 µM). It also gave an MIC90 (Thomasclavelia ramosa) of 1 µg/mL (≈ 5.84 µM), an MIC50 (Clostridium) of 0.25 µg/mL (≈ 1.46 µM) and an MIC90 (Clostridium) of 1 µg/mL (≈ 5.84 µM). It also gave an MIC50 [1] of 1 µg/mL (≈ 5.84 µM), an MIC90 [1] of 128 µg/mL (≈ 748 µM) and an MIC50 (Clostridium tertium) of 0.25 µg/mL (≈ 1.46 µM). For the same molecule, the MIC90 (Clostridium tertium) was 1 µg/mL (≈ 5.84 µM), the MIC50 [2] was at most 0.12 µg/mL and the MIC90 [2] was 0.25 µg/mL (≈ 1.46 µM). For the same molecule, the MIC50 (Prevotella intermedia [3]) was 0.5 µg/mL (≈ 2.92 µM), the MIC90 (Prevotella intermedia [3]) was 1 µg/mL (≈ 5.84 µM) and the MIC50 (Phocaeicola vulgatus) was 0.5 µg/mL (≈ 2.92 µM). The MIC90 (Phocaeicola vulgatus) was 1 µg/mL (≈ 5.84 µM), the MIC50 (Anaerococcus tetradius) was 0.5 µg/mL (≈ 2.92 µM) and the MIC90 (Anaerococcus tetradius) was 2 µg/mL (≈ 11.7 µM). It also gave an MIC50 (Prevotella buccae) of 0.5 µg/mL (≈ 2.92 µM), an MIC90 (Prevotella buccae) of 1 µg/mL (≈ 5.84 µM) and an MIC50 (Actinomyces naeslundii) of 1 µg/mL (≈ 5.84 µM). For the same molecule, the MIC90 (Actinomyces naeslundii) was 128 µg/mL (≈ 748 µM), the MIC50 ([Clostridium] innocuum) was 0.5 µg/mL (≈ 2.92 µM) and the MIC90 ([Clostridium] innocuum) was 4 µg/mL (≈ 23.4 µM). For the same molecule, the MIC50 (Ruminococcus sp.) was 0.5 µg/mL (≈ 2.92 µM), the MIC90 (Ruminococcus sp.) was 2 µg/mL (≈ 11.7 µM) and the MIC50 [4] was 0.25 µg/mL (≈ 1.46 µM). The MIC90 [4] was 1 µg/mL (≈ 5.84 µM), the MIC50 (Flavonifractor plautii) was 0.25 µg/mL (≈ 1.46 µM) and the MIC90 (Flavonifractor plautii) was 1 µg/mL (≈ 5.84 µM). The MIC50 (Clostridium disporicum) was 0.25 µg/mL (≈ 1.46 µM), the MIC90 (Clostridium disporicum) was 1 µg/mL (≈ 5.84 µM) and the MIC50 (Anaerococcus prevotii) was 0.5 µg/mL (≈ 2.92 µM). For the same molecule, the MIC90 (Anaerococcus prevotii) was 2 µg/mL (≈ 11.7 µM), the MIC50 [5] was 0.25 µg/mL (≈ 1.46 µM) and the MIC90 [5] was 1 µg/mL (≈ 5.84 µM). For the same molecule, the MIC50 (Fusobacterium varium) was at most 0.12 µg/mL, the MIC90 (Fusobacterium varium) was 0.25 µg/mL (≈ 1.46 µM) and the MIC50 (Clostridium spiroforme) was 0.25 µg/mL (≈ 1.46 µM). For the same molecule, the MIC90 (Clostridium spiroforme) was 1 µg/mL (≈ 5.84 µM), the MIC50 (Clostridium glycolicum) was 0.25 µg/mL (≈ 1.46 µM) and the MIC90 (Clostridium glycolicum) was 1 µg/mL (≈ 5.84 µM). It also gave an MIC50 [6] of 1 µg/mL (≈ 5.84 µM), an MIC90 [6] of 128 µg/mL (≈ 748 µM) and an MIC50 (Holdemania filiformis) of 1 µg/mL (≈ 5.84 µM). The MIC90 (Holdemania filiformis) was 128 µg/mL (≈ 748 µM), the MIC50 (Prevotella disiens) was 0.5 µg/mL (≈ 2.92 µM) and the MIC90 (Prevotella disiens) was 1 µg/mL (≈ 5.84 µM). It also gave an MIC50 (Bacteroides fragilis) of 1 µg/mL (≈ 5.84 µM), an MIC90 (Bacteroides fragilis) of 2 µg/mL (≈ 11.7 µM) and an MIC50 (Bifidobacterium breve) of 1 µg/mL (≈ 5.84 µM). The MIC90 (Bifidobacterium breve) was 128 µg/mL (≈ 748 µM), the MIC50 [7] was 1 µg/mL (≈ 5.84 µM) and the MIC90 [7] was 128 µg/mL (≈ 748 µM). It also gave an MIC50 (Clostridium butyricum) of 0.25 µg/mL (≈ 1.46 µM), an MIC90 (Clostridium butyricum) of 1 µg/mL (≈ 5.84 µM) and an MIC50 [8] of 128 µg/mL (≈ 748 µM). The MIC90 [8] was over 128 µg/mL, the MIC50 (Collinsella aerofaciens) was 1 µg/mL (≈ 5.84 µM) and the MIC90 (Collinsella aerofaciens) was 128 µg/mL (≈ 748 µM). The MIC50 (Fusobacterium mortiferum) was at most 0.12 µg/mL, the MIC90 (Fusobacterium mortiferum) was 0.25 µg/mL (≈ 1.46 µM) and the MIC50 [9] was 128 µg/mL (≈ 748 µM). It also gave an MIC90 [9] of over 128 µg/mL, an MIC50 [10] of 0.5 µg/mL (≈ 2.92 µM) and an MIC90 [10] of 1 µg/mL (≈ 5.84 µM). The MIC50 (Prevotella intermedia [11]) was 0.5 µg/mL (≈ 2.92 µM), the MIC90 (Prevotella intermedia [11]) was 1 µg/mL (≈ 5.84 µM) and the MIC50 (Clostridium bartlettii) was 0.25 µg/mL (≈ 1.46 µM). The MIC90 (Clostridium bartlettii) was 1 µg/mL (≈ 5.84 µM), the MIC50 (Clostridium perfringens) was 0.5 µg/mL (≈ 2.92 µM) and the MIC90 (Clostridium perfringens) was 1 µg/mL (≈ 5.84 µM).
